For test [1], the system named is Tgfβ mRNA. The test is described as follows: Tgfβ mRNA expression in primary fibroblasts derived from pathological scars. The class given is cell-based, human. To be noted: exposed 24 h, vs DMSO, FIG. 3C. How it is done:
(§1) Skin samples (hypertrophic, keloids and burn scars) were collected during surgical procedures. To generate dermal fibroblast cultures, skin samples were minced and incubated at room temperature in 0.05% trypsin-EDTA (ThermoFisher) solution for 30 min with gentle shaking. Cells were collected by centrifuging at 700 g for 10 min, resuspended in cell culture media containing 25% FBS, and plated onto 24 well plates to establish lines. Fibroblast cultures were grown and maintained in 1× MEM (Corning) supplemented with 25% FBS and penicillin/streptomycin (Corning) to a final concentration of 100 IU penicillin and 500 μg.mL-1 streptomycin.
(§2) Cells at similar population doubling were plated 1:4 from confluent cultures and allowed to grow until ˜80% confluent. Cells were then starved during 12 hours and exposed during 24 h to either BYL719 (0.1 or 1 μmol.L-1; MedChem Express), taselisib (0.1 or 2. μmol.L-1; MedChem Express) or miransertib (0.1 or […]) or equal volume of DMSO. We also performed ex vivo keloid scars culture. Keloids were exposed during 24h to either BYL719 (0.1 or 1 μmol.L-1; MedChem Express) or equal volume of DMSO.
(§3) Total RNA was isolated from snap-frozen kidneys using the TRIzol reagent (Sigma) according to the manufacture's protocol. First-strand cDNA was synthesized using the MML-V reverse transcriptase (Promega, USA). Real-time PCR was performed using the iQ-SYBR Green supermix (BioRad) and the iQ5 Multicolor Real-Time PCR Detection System (BioRad) for mRNA detection. 18S rRNA was used as a house keeping gene.

Test [2] deals with Tgfβ mRNA. Kind of test: Tgfβ mRNA expression in ex vivo keloid scars culture. To be noted: ex vivo keloids exposed 24h to 0.1 or 1 μmol.L-1, vs DMSO; FIG. 3F. The class given is cell-based, human. The protocol: as §2, §3
Test [3] has as its system AKT/mTOR pathway. Kind of test: Western blot of P-AKT and P-S6RP in primary fibroblasts derived from pathological scars. It is filed as cell-based, human. To be noted: starved 12 hours, exposed 24 h, vs DMSO, FIG. 3A. How it is done:
as §1, §2
Cultures were rinsed with 1X PBS, treated for 10 min with 0.05% Trypsin, collected by centrifugation at 4° C., and pellets were flash frozen on dry ice. Protein lysates were collected by directly adding 1× RIPA buffer containing protease and phosphatase inhibitors. Each experiment was performed in duplicate and repeated at least three times
Western blots were performed as previously described^31. Briefly, protein extracts from the scars and primary culture of fibroblasts were resolved by SDS-PAGE before being transferred onto the appropriate membrane and incubated with anti-P-AKT (Ser473) antibody (Cell Signaling Technology, ref# 4060), anti-P-S6RP antibody (Cell Signaling Technology, ref# 5364) and anti-GAPDH (Merck Millipore, ref#374), followed by the appropriate peroxidase-conjugated secondary antibody. […]
For orientation: In western blotting, separated proteins are transferred to a membrane and probed.

Test [4] relates to primary fibroblasts derived from pathological scars. The test is described as follows: Proliferation of primary fibroblasts derived from pathological scars. The class given is cell-based, human. The following applies: exposed 24 h, vs DMSO, FIG. 3B. The protocol: (§4) Paraffin-embedded kidney sections (4-um) were incubated with anti-P-AKT (Ser473) antibody (Cell Signaling Technology, ref# 4060), anti-P-S6RP antibody (Cell Signaling Technology, ref# 5364), anti-a-smooth muscle cell antibody (Sigma Aldrich, ref# A5228), and anti-KI67 antibody (Thermo Fisher Scientific, ref# RM-9106-51) Immunofluorescence studies were analyzed using a Zeiss LSM 700 confocal microscope.
as §1, §2

A further test deals with nevi. Kind of test: Cohort of PROS patients treated with oral BYL719: nevus color (visual scale). The class given is in vivo, human. The following applies: arbitrary visual scale 5: dark color to 1: normal skin color, FIG. 1. The protocol:
(§5) The cohort is composed by 19 patients including 15 children (ranging from 4 to 50 years old). Children received 50 mg daily while adults received 250 mg daily. BYL719 was delivered orally every morning with breakfast. Patients were followed at regular intervals:
(§6) weekly for 8 weeks, every two weeks for 1 month and then monthly. All patients underwent clinical examination, and areas of overgrowth, nevi as well as visible scars were photographed before and after BYL719 introduction. All pictures were taken by a single operator, always using the same camera (12-megapixel camera), in the same room and at the same distance. […] Length and surface of the scars were measured using Image J.
As shown on FIG. 1, inventors have observed that during treatment with oral BYL719, the length, the area and the thickness of the different scars were dramatically reducing without additional treatment. […] Nevus color was evaluated using an arbitrary visual scale ranging from (5: dark color to 1: normal skin color).

The next test relates to keloids. Kind of test: Proliferation rate in ex vivo keloid scars culture. The following applies: ex vivo keloids exposed 24h to 0.1 or 1 μmol.L-1, vs DMSO; FIG. 3E. The class given is cell-based, human. How it is done: as §4, §2
A further test deals with burn scar. Kind of test: PROS patient treated with oral BYL719: burn scar. It is filed as in vivo, human. The following applies: one PROS patient with a large burn scar on the left thigh, FIG. 2. How it is done:
as §5, §6

In test [5] the test system is hypertrophic and keloids scars. The test is described as follows: Cohort of PROS patients treated with oral BYL719: hypertrophic and keloid scars. It is filed as in vivo, human. To be noted: daily dose of 250 mg in adults or 50 mg in children, FIG. 1. How it is done:
as §5, §6

The subject of test [6] is AKT/mTOR pathway. Kind of test: Western blot of ex vivo keloid scars culture. It is filed as cell-based, human. To be noted: ex vivo keloids exposed 24h to 0.1 or 1 μmol.L-1, vs DMSO; FIG. 3D. The protocol:
as §2
Western blots were performed as previously described^31. Briefly, protein extracts from the scars and primary culture of fibroblasts were resolved by SDS-PAGE before being transferred onto the appropriate membrane and incubated with anti-P-AKT (Ser473) antibody (Cell Signaling Technology, ref# 4060), anti-P-S6RP antibody (Cell Signaling Technology, ref# 5364) and anti-GAPDH (Merck Millipore, ref#374), followed by the appropriate peroxidase-conjugated secondary antibody. Chemiluminescence was acquired using a Fusion FX7 camera (Vilbert Lourmat) and densitometry was performed using the Bio1D software (Certain Tech).

As to `Cc1nc(NC(=O)N2CCC[C@H]2C(N)=O)sc1-c1ccnc(C(C)(C)C(F)(F)F)c1` [BYL719, Alpelisib], the “mRNA expression of Tgfβ, a marker of fibrosis” value (shortened to “mRNA expression of Tgfβ”) with Tgfβ mRNA [1] is “reduced”. The “Tgfβ mRNA expression” value with Tgfβ mRNA [2] is recorded as “reduce”. Also, the “AKT/mTOR pathway (P-AKT and P-S6RP in WB)” value with AKT/mTOR pathway [3] is “efficiently block”. The proliferation entry in [4] is reported as “reduced”. For the same molecule, in the test with nevi, the nevus color entry was “spontaneously decolorating”. The proliferation rate entry in the test with keloids is reported as “reduce”. In the test on burn scar, the “size of the burn scar” value is “reduction in size”. Moreover, in test [5], the “length of the hypertrophic and keloids scars” value is listed as “progressive improvement”; the “surface area of the hypertrophic and keloids scars” value was “progressive improvement”; the “thickness of the hypertrophic and keloids scars” value is given as “progressive improvement”. Moreover, in the test on AKT/mTOR pathway [6], the “AKT/mTOR pathway (Western blot)” value is reported as “inhibits”.

For the molecule `Nc1ncccc1-c1nc2ccc(-c3ccccc3)nc2n1-c1ccc(C2(N)CCC2)cc1` [miransertib, Miransertib], the “mRNA expression of Tgfβ” value with Tgfβ mRNA [1] is on record as “reduced”. For the same molecule, the “AKT/mTOR pathway (P-AKT and P-S6RP in WB)” value in the test on AKT/mTOR pathway [3] is reported as “efficiently block”. Moreover, the proliferation result in test [4] is recorded as “reduced”.

As to `Cc1nc(-c2cn3c(n2)-c2ccc(-c4cnn(C(C)(C)C(N)=O)c4)cc2OCC3)n(C(C)C)n1` [taselisib, Taselisib], the “mRNA expression of Tgfβ” value with Tgfβ mRNA [1] is given as “reduced”. Besides, in the test on AKT/mTOR pathway [3], the “AKT/mTOR pathway (P-AKT and P-S6RP in WB)” value is “efficiently block”. Also, the proliferation result in test [4] is “reduced”.
